From PMC4559389, “Tumor Detection at 3 Tesla with an Activatable Cell Penetrating Peptide Dendrimer (ACPPD-Gd), a T1 Magnetic Resonance (MR) Molecular Imaging Agent” (PLoS ONE, 2015)
Values joined by “and” are separate entries in the source; they are usually repeats but may differ in a detail not shown here. Equal values may be shown once. “Also recorded” adds a separate entry of the source.

Columns and labels:
Assay type in all cases: in vivo, albino C57BL/6 mice
[1] = tested on: Py8119 mammary tumor; experiment: T1-weighted MR tumor enhancement at 3T in mice with mammary fat pad tumors
From the text: The University of California San Diego Institutional Animal Care and Use Committee (IACUC) approved this research under protocol S04011. All steps were ensured to minimize pain and suffering of all animals during the course of this experiment. Anesthesia during tumor inoculation and MR imaging was isoflurane/O2. All animals were given free access to food and water ad libitum during the entire study. Euthanasia involved CO2 asphyxiation followed by cervical dislocation. Each of the 4 inguinal nipples of 16 albino C57BL/6 (Harlan Labs) mice were randomized such that each mouse had 2 mammary fat pads inoculated with 10^4 Py8119 mammary tumor cells and the other 2 with an equal volume of saline. […]
All mice were imaged on days 4, 9, and 14 after inoculation under isoflurane/O2 anesthesia. […] Optimal ACPPD-Gd dose and imaging time were previously determined. […]
Tumor signal and size were quantified at each time point using region-of-interest (ROI) analysis with OsiriX software (Pixmeo, Geneva). […] Tumors <1mm^3 were not analyzed because of unreliable ROI placement and partial volume effects. A polygonal ROI was traced around the tumor on the fat-saturated T1-weighted axial sequence at its maximal dimension and the average signal and cross-sectional area recorded. […] Tumor volume was calculated using an ellipsoid function as 4/3*(area of tumor ROI)*(1/2)*(maximal orthogonal coronal diameter). […]

[2] = Post mortem tissue Gd content by ICP-MS; settings: ACPPD-Gd 24 h post, gadobutrol at equilibrium phase
Experimental: Mice were sacrificed immediately after the 14-day MRI study and tumors, liver, kidneys, and muscle were harvested and immediately frozen at -20°C for later analysis. Tissue Gd content was measured using inductively coupled plasma-mass spectrometry (ICP-MS) on defrosted and weighted tissues. Less than 100mg samples of each tissue were placed in 900uL of nitric acid on a Gyromixer overnight at room temperature. The next day, 200μL of 30% hydrogen peroxide were added, and after 2 hours the samples were heated to 90–100°C for 2 hours. Tuning solution was then added to a 5mL total volume. Samples were then run in an Agilent Technologies 7700 Series ICP-MS to measure gadolinium content in parts-per-billion. Tissue Gd concentration in micromolar was calculated as (ppb of Gd/Gd molecular weight)*(total weight of solution measured/tissue wet weight).

[3] = tested on: Py8119 mammary tumor; experiment: Blinded reader tumor detection on 3T MRI (ROC/AUC, inter-observer kappa); settings: for AUC (95%CI) of ROC curve for tumor presence, Reader 1 (experienced), all tumors (n = 107) / AUC (95%CI) of ROC curve for tumor presence, Reader 2 (trainee), all tumors (n = 107): 288 breasts, ACPPD-Gd 24 h post, gadobutrol 2–3 min post; for AUC (95%CI) of ROC curve for tumor presence, Reader 1 (experienced), tumors <5mm^3 (n = 58) / AUC (95%CI) of ROC curve for tumor presence, Reader 2 (trainee), tumors <5mm^3 (n = 58): obvious tumors (>5mm^3) removed
From the text: The acquired 72 studies (3 groups x 8 mice x 3 time points) with 4 pulsing sequences each were anonymized and presented at random to 2 observers blinded to contrast grouping, time since inoculation, and which 2 nipples were inoculated with tumor. Reader 1 is an MR expert with extensive experience in clinical and animal MR image interpretation (RFM) and Reader 2 is a 2nd-year radiology resident in training (ESO). Studies were reviewed independently and readers reported whether the breast tissue under each of the 4 nipples in each study was normal or contained tumor along with their confidence level as low, medium, or high. If a tumor was present they described the degree and pattern of tumor enhancement.
Receiver operating characteristic (ROC) curves were constructed using 4 levels: normal, low, medium and high probability for tumor presence. There were 288 breasts evaluated (3 groups x 8 animals x 3 time-points x 4 breasts). […] Additional ROC curves were constructed for tumors <5mm^3 to assess the potential benefit of ACPPD-Gd in detecting small tumors. Interobserver agreement was assessed for all 288 breasts and within each of the 3 contrast groups using the kappa statistic. Area under the ROC curve (AUC) was calculated for the 3 contrast groups using the JROC web-based program.

O=C([O-])CN1CCN(CC(=O)[O-])CCN([C@H](CO)[C@H](O)CO)CCN(CC(=O)[O-])CC1.[Gd+3] (racemic) [gadobutrol, Gd-DO3A-butrol]
Pattern of tumor enhancement ([1]; 3T axial fat-saturated T1w images): more apparent at the tumor periphery; also recorded: enhanced predominantly the tumor rim
T1w tumor enhancement, small tumors (1-5mm^3) ([1]; 3T, ACPPD-Gd 24 h after 0.036 mmol Gd/kg, gadobutrol 2–3 min after 0.1 mmol/kg, mean±SD, p = 0.03): 19±18%
Gd biodistribution: organ of dominant accumulation ([2]; ICP-MS of tumors, liver, kidneys, muscle): the majority of Gd was in the kidneys
Tumor to muscle Gd concentration ratio ([2]; ICP-MS, 14 days after inoculation, mean±SD): 2.7 ± 1.0
AUC (95%CI) of ROC curve for tumor presence, Reader 1 (experienced), all tumors (n = 107) [3]: 0.91 and 0.92
AUC (95%CI) of ROC curve for tumor presence, Reader 2 (trainee), all tumors (n = 107) [3]: 0.81
AUC (95%CI) of ROC curve for tumor presence, Reader 1 (experienced), all tumors (n = 107) ([3]; listed as Gadobutrol): 0.92 (0.86, 0.98)
AUC (95%CI) of ROC curve for tumor presence, Reader 2 (trainee), all tumors (n = 107) ([3]; listed as Gadobutrol): 0.81 (0.73, 0.90)
AUC (95%CI) of ROC curve for tumor presence, Reader 1 (experienced), tumors <5mm^3 (n = 58) [3]: 0.86
AUC (95%CI) of ROC curve for tumor presence, Reader 2 (trainee), tumors <5mm^3 (n = 58) [3]: 0.69
AUC (95%CI) of ROC curve for tumor presence, Reader 1 (experienced), tumors <5mm^3 (n = 58) ([3]; listed as Gadobutrol): 0.86 (0.75, 0.96)
AUC (95%CI) of ROC curve for tumor presence, Reader 2 (trainee), tumors <5mm^3 (n = 58) ([3]; listed as Gadobutrol): 0.69 (0.57, 0.81)
